Test results taken from patent EP0857483A1, “Substituted aminopyridines in the treatment of glucose metabolism disorders” (ELI LILLY AND COMPANY, priority 1997, dated 1998).

Columns and labels:
[1] = tested on: Zucker diabetic fatty rat (ZDF-DRT-fa); experiment: Further study: plasma glucose in ZDF rats with dose reduction and withdrawal of treatment; assay type: in vivo
Method: (§1) To determine the impact of treatment with the substituted aminopyrimidines of Formula I on the progression of disease 6 week-old ZDF animals were grouped into the following categories, with 5 animals assigned to each group. Group 1 Control (5008 chow ad libitum) Group 2 Moxonidine (10 mg/kg/day) Group 3 Pair fed to correct for decrease in food consumption in 10 mg/kg/day group
(§2) Rats were housed one per plastic cage with bedding and had free access to water and Purina Formulalab 5008 Chow (except pair fed group). Because previous studies had indicated a reduction in food consumption with moxonidine treatment, body weight and food consumption were monitored daily, and a group of control animals was pair fed to moxonidine treated group. Blood samples were collected from the tail vein. Plasma glucose and insulin levels are monitored weekly.
(§3) Plasma glucose was measured by coupled hexokinase method on the IL Monarch System (Instrumentation Laboratory, Lexington, MA). Plasma insulin was determined with radioimmunoassay kit from Diagnostics Products Corporation (San Diego, CA) using rat insulin as a standard.
A further study was carried out as described above, except that moxonidine treatment was reduced to 6.4 mg/kg/day for two days, followed by resumption of moxonidine treatment at 10 mg/kg/day for 13 days, and then stopping moxonidine treatment.

[2] = tested on: Zucker diabetic fatty rat (ZDF-DRT-fa); experiment: Plasma glucose in 6 week-old prediabetic Zucker diabetic fatty rats; assay type: in vivo; conditions: value (SEM)
Method: (§4) The activity of the compounds of the present invention was determined by testing the efficacy in vivo in Zucker diabetic rats.
(§5) The Zucker diabetic fatty rat (ZDF-DRT-fa) is a classic rodent model of diabetes associated with obesity and insulin resistance, with tissue specific defects in insulin sensitivity similar to human patients with type II diabetes mellitus. This animal model at six weeks of age is normoglycemic, but glucose intolerant (Clark JB, Palmer CJ, and Shaw WN: The diabetic Zucker fatty rat, Proceeding of the Society for Experimental Bioloqy and Medicine 173, 68-75, 1983; and Peterson RG, Shaw WN, Neel M, Little LA, Eichburg J: Zucker diabetic fatty rat as a model for non-insulin dependent diabetes mellitus. ILAR News 32:16-19, 1990.) Between seven and eight weeks of age, plasma glucose levels rise as the pancreatic beta cells lose their ability to secrete sufficient insulin to compensate for insulin resistance. In an attempt to maintain plasma glucose in normal range, the pancreas is forced to secrete increasing amount of insulin, resulting in hyperinsulinemia (Bue JM and Shaw WN: ZDF-Drt-fa rat: A new model with marked susceptibility to dietary manipulation. Diabetes 40:865A, 1991). The ZDF rat is usually studied between eight and nine weeks of age when it is hyperglycemic, hyperinsulinemic, and hyperlipemic, in an attempt to halt further decline of pancreatic function. The present study was carried out in six weeks old animals (prediabetic). The purpose of this study was to determine whether moxonidine treatment will prevent or delay onset of diabetes in the six weeks old prediabetic ZDF rat.
as §1, §2, §3
(§6) Plasma glucose and plasma insulin were monitored weekly. The results of these in vivo experiments are set forth below in Tables 1 and 2. The value in parenthesis following the plasma glucose value and plasma insulin value is the standard error of the mean.

[3] = tested on: Zucker diabetic fatty rat (ZDF-DRT-fa); experiment: Plasma insulin in 6 week-old prediabetic Zucker diabetic fatty rats; assay type: in vivo; conditions: value (SEM)
Method: as §4, §5, §1, §2, §3, §6

[4] = tested on: I1 receptors over α2 adrenergic receptors; conditions: bovine RVLM; saturation binding; Ernsberger et al., J. Pharmacol. Exp. Ther., 264, 172-182 (1993); cited from earlier work

COc1nc(C)nc(Cl)c1N=C1NCCN1 [Moxonidine, 4-chloro-N-(imidazoline-2-ylidene) -6-methoxy-2-methyl-5-pyrimidineamine]
Plasma Glucose ([1]; Treatment period day 0, mox @ 10 m/k/d): 141.5333 mg/dL | Plasma Glucose ([1]; Treatment period day 7, mox @ 10 m/k/d): 152.8917 mg/dL | Plasma Glucose ([1]; Treatment period day 14, mox @ 10 m/k/d): 166.2528 mg/dL | Plasma Glucose ([1]; Treatment period day 21, at this day reduced mox dose to 6.4 m/k/d): 172.1556 mg/dL | Plasma Glucose ([1]; Treatment period day 23, after two days at 6.4 m/k/d, mox @ 10 m/k/d resumed): 254.0889 mg/dL | Plasma Glucose ([1]; Treatment period day 28, mox @ 10 m/k/d): 251.4833 mg/dL | Plasma Glucose ([1]; Treatment period day 36, stopped mox treatment): 242.5944 mg/dL | Plasma Glucose ([1]; Treatment period day 42, 1 wk after mox is removed): 265.9556 mg/dL | Plasma Glucose ([1]; Treatment period day 49, 2 wks after mox is removed): 410.425 mg/dL | Plasma Glucose ([2]; Day 0, 10 mg/kg/day): 145.6 (2.4) mg/dl | Plasma Glucose ([2]; Day 7, 10 mg/kg/day): 148.1 (13.8) mg/dl | Plasma Glucose ([2]; Day 14, 10 mg/kg/day): 166.1 (11.2) mg/dl | Plasma Glucose ([2]; Day 21, 10 mg/kg/day): 164.2 (8.0) mg/dl | Plasma Glucose ([2]; Day 28, 10 mg/kg/day): 168.0 (12.6) mg/dl | Plasma Glucose ([2]; Day 35, 10 mg/kg/day): 191.6 (8.2) mg/dl | Plasma Glucose ([2]; Day 42, 10 mg/kg/day): 179.8 (6.1) mg/dl | Plasma Glucose ([2]; Day 49, 10 mg/kg/day): 152.1 (8.7) mg/dl | Plasma Glucose ([2]; Day 63, 10 mg/kg/day): 168.4 (12.6) mg/dl | Plasma Insulin ([3]; Day 0, 10 mg/kg/day): 10.9 (0.9) ng/ml | Plasma Insulin ([3]; Day 7, 10 mg/kg/day): 9.3 (1.0) ng/ml | Plasma Insulin ([3]; Day 14, 10 mg/kg/day): 12.7 (1.4) ng/ml | Plasma Insulin ([3]; Day 21, 10 mg/kg/day): 17.8 (1.2) ng/ml | Plasma Insulin ([3]; Day 28, 10 mg/kg/day): 23.4 (1.8) ng/ml | Plasma Insulin ([3]; Day 35, 10 mg/kg/day): 24.8 (1.4) ng/ml | Plasma Insulin ([3]; Day 42, 10 mg/kg/day): 20.6 (0.7) ng/ml

Clc1cccc(Cl)c1N=C1NCCN1 [clonidine]
selectivity value (Ki at α2 sites in µM/Ki sites in µM) [4]: less than 4
